Where “and” joins values, the source holds several entries; their conditions need not be identical. Equal entries are not always repeated. Where two headings read alike, the source gives them in different places.
Legend:
[1] = tested on: Plutella xylostella eggs (Waite strain); test: Reversal of ovicidal effect by added metal ions (FeSO4), Plutella eggs; format: in vivo
Description: (§1) Within 24 hours of collection the following experimental design was chosen. Batches of eggs were exposed to 10 mM 6,6′-dimethyl-2,2′-dipyridyl for 2 seconds while additional batches of eggs were exposed to the solvent only (Methanol) for 2 seconds. All batches of eggs were allowed to air dry for 20 minutes at room temperature. The eggs were then given a 2 second exposure to FeSO4 at either 10, 5 or 1 mM, air dried and put in the incubator at 24° C. and allowed to hatch over the next 6 days. In addition, a positive control of 10 mM 6,6′-dimethyl-2,2′-dipyridyl was set up in which eggs were exposed to this compound for 2 seconds, air dried and placed in the incubator.
as §1, with “10 mM 5,5′-dimethyl-2,2′-dipyridyl for 2” for “10 mM 6,6′-dimethyl-2,2′-dipyridyl for 2”, “FeSO4 at 10, 5” for “FeSO4 at either 10, 5”, “put in an incubator at” for “put in the incubator at”, “of 10 mM, 5,5′-dimethyl-2,2′-dipyridyl was set” for “of 10 mM 6,6′-dimethyl-2,2′-dipyridyl was set”

H. contortus eggs = test: Haemonchus contortus egg hatch; format: in vivo
Description: In an attempt to improve control of H. contortus the effects of the compound 5,5′-dimethyl-2,2′-dipyridyl was examined on H. contortus eggs. Eggs were recovered from the faeces of infected sheep using a standard sucrose floatation method. The eggs were corrected to a density of approximately 2,500 eggs per mL and were then exposed to varying concentrations of compound and incubated for 48 hours at 25° C. The eggs were then examined to determine the ovicidal efficacy of the compound in comparison to untreated control and a solvent only control.
In addition, the ovicidal efficacy of the compound 2-acetyl-1-tetralone was examined against H. contortus (FIG. 10). The same protocol was used as described for 5,5′-dimethyl-2,2′-dipyridyl.

house dust mite = test: House dust mite counts on treated filter paper; format: in vivo, Dermatophagoides spp; conditions: per replicate; for 2 week count (mite count): 2 weeks at 25° C. and 75% RH
Description: A filter paper (90 mm diameter) was taken and placed in a Petri dish of the same dimensions. The filter paper was then wetted throughout with the test compound, using a small air pump sprayer. The wetted filter paper was then allowed to dry in free flowing air. 200 mg dust mite medium, containing roughly 500 mites/g, was placed on the filter paper and the number of mites counted under a microscope. The arena was then left for 2 weeks on an incubator at 25° C. and 75% RH. After 2 weeks the number of mites in the arena was counted for a second time. This experiment was repeated 3 times with the test compound and a further 3 times using water as a control.

[2] = tested on: Third stage H. contortus larvae; test: Survival of third stage H. contortus larvae (L3 to L4); format: in vivo, Haemonchus contortus
Description: Third stage H. contortus larvae were exposed to varying concentrations of 5,5′-dimethyl-2,2′-dipyridyl and the effects on moulting from L3 to L4 examined. The larvae were either exsheathed (their L2 sheath was removed chemically) or unexsheathed (their L2 sheaths were intact). The larvae were exposed to varying concentrations of 5,5′-dimethyl-2,2′-dipyridyl added to their culture media of DMEM and the effects on larval survival monitored over time. Following a 30 minute incubation at 37° C., greater than 90% of the exsheathed larvae exposed to 1 and 0.5 mM of the compound appeared dead. […] By day six post exposure greater than 90% of the larvae appeared to have died in the treatment groups while the control larvae appeared healthy.

head lice eggs = test: Formulated compound on egg hatching in head lice; format: in vivo; conditions: 20 mM formulation
Description: Gravid female lice were permitted to lay eggs. The eggs were counted, inspected under a light microscope and all eggs that appeared undamaged were allocated to one of two treatment groups. One group was exposed to 5′-dimethyl-2,2′-dipyridyl in a formulation, while the second group was exposed to the formulation only. The protocol was as follows:
Treatments: 5′-dimethyl-2,2′-dipyridyl (20 mM) n=10 • Vehicle control only n=10
Exposure time: 10 minutes
Wash time: 1 minute @˜37° C.
Incubation: All eggs were placed at 31° C. in a humid incubator and monitored for signs of development specifically of the eyes and subsequent hatching, see Table 21.

[3] = tested on: Plutella xylostella eggs (Waite strain); test: Plutella xylostella egg hatch (egg dip); conditions: for egg hatching of Plutella eggs (Tables 10 and 11): cloth or parafilm; for ovicidal efficacy against Plutella eggs (FIG. 7): 1% diethoxyglycol; for % Inhibition of egg hatch relative to control: Example 12, dip 2-10 seconds, day 6 post laying
Description: Several hundred Plutella xylostella eggs (Waite strain) were collected, that had been laid over a 24 hour period.
The egg masses were then placed in a humid box at 25° C. until egg hatch. Control eggs were exposed to absolute methanol as described above. At day 6 post laying the eggs were assessed from the different treatments and the percentage of egg hatch determined relative to the control as shown in Table 9.
Batches of Plutella eggs that were laid on either fine cloth or parafilm were dipped in a specific inhibitor solution for between 2-10 seconds, the excess solution was drained by blotting with dry tissue paper. The egg masses were then placed in a humid box at 25 degrees until egg hatch. Control eggs were exposed to absolute methanol as described above or not treated. At day 6 post laying the eggs were assessed from the different treatments and the percentage of egg hatch determined relative to the controls as shown in Tables 10 and 11.
The egg masses were then placed in a humid box at 25 degrees until egg hatch. Control eggs were exposed to absolute ethanol as described above. On day 6 post laying the eggs were assessed from the different treatments and the percentage of egg hatch determined relative to the control.

[4] = tested on: Lice (L) / Plutella (P) eggs; format: in vivo; conditions: Lice/Plutella: P
Description: Log LD50 is obtained from the observed percentage ovicidal activity by conversion using a modified logit transformation. The observed percentage ovicidal activity values were transformed using the equation:
The additional 5% was used to allow a number to be calculated when 0% and 100% activity was observed. The BA is a crude correction to the log of the concentration at which the compounds were tested. Correlation between BA values and LD50 allows the calculation of Log LD50. […] A number of metal chelating agents with potential for inhibiting the remodelling events associated with thin membrane egg hatching in lice were analysed by comparing their percentage ovicidal activity in lice at different concentrations, their logit calculated pLD50, Pref pLD50, Activity class, clogP and molar refractivity were determined.

[5] = tested on: Helicoverpa armigera eggs; test: Helicoverpa egg hatch; conditions: for ovicidal efficacy against H. armigera eggs (FIG. 6): 1% diethoxyglycol in water; for % Inhibition of egg hatch relative to control: Example 16, exposed 2-10 seconds, day 6 post laying
Description: A range of concentrations were made up in water and the eggs placed in the solutions for approximately 2-10 seconds. The eggs which had been laid on cloth were then blotted dry and placed in an incubator at 26° C. for 3-4 days until hatch. Hatch rates were then assessed compared to a water only treated control (FIG. 5).
The compound was dissolved in 100% diethoxyglycol and diluted to a final concentration of 1% in water.
Several hundred Helicoverpa armigera eggs (Tatura×Toowoomba strains) were collected, that had been laid on fine mesh cloth over a 24 hour period.
Batches of Helicoverpa eggs were exposed to a specific inhibitor solution for between 2-10 seconds the excess solution drained by blotting with dry tissue paper. The egg masses were then placed in a humid box at 25 degrees until egg hatch. Control eggs were exposed to absolute methanol as described above. At day 6 post laying the eggs were assessed from the different treatments and the percentage of egg hatch determined relative to the control as shown in Table 12.
Batches of Helicoverpa eggs were then exposed to a specific inhibitor solution for between 2-10 seconds the excess solution drained by blotting with dry tissue paper. The egg masses were then placed in a humid box at 25° C. until egg hatch. Control eggs were exposed to absolute methanol as described above. At day 6 post laying the eggs were assessed from the different treatments and the percentage of egg hatch determined relative to the control as shown in Table 13.

[6] = 10 mM compound followed by 2 second exposure to 1 mM FeSO4
[7] = 10 mM compound followed by 2 second exposure to 5 mM FeSO4
[8] = 10 mM compound followed by 2 second exposure to 10 mM FeSO4

Question: With `Cc1ccc(-c2ccc(C)cn2)nc1` [5,5′-dimethyl-2,2′-dipyridyl] as the compound, how does the “% Inhibition relative to the FeSO4 controls” value [1, 6] read?
Answer: The value was 0%.

Question: And the “% Inhibition relative to the FeSO4 controls” value [1, 7]?
Answer: The value was 0%.

Question: And the “% Inhibition relative to the FeSO4 controls” value [1, 8]?
Answer: The value was 8%.

Question: What about the “ovicidal efficacy on H. contortus eggs (FIG. 8)” value (H. contortus eggs; 180 and 18 ug/mL (equivalent to 1 and 0.1 mM), 48 hours at 25° C.) of the same compound?
Answer: Its value is “potently ovicidal”.

Question: What about the “2 week count (mite count)” value (house dust mite; listed as Test Compound) of the same compound?
Answer: Its value is 50 and 90.

Question: And the “2 week count (mite count)” value (house dust mite; listed as Test compound)?
Answer: The value was 74.

Question: What about the “1 hour count (mite count)” value (house dust mite; listed as Test Compound) of the same compound?
Answer: Its value is 61 and 104.

Question: What about the “1 hour count (mite count)” value (house dust mite; listed as Test compound) of the same compound?
Answer: The value was 76.

Question: And the “appearance of unexsheathed larvae” value ([2]; 10 μM, up to 6 days post exposure)?
Answer: The value was “appeared normal”.

Question: What about the “effects on unexsheathed larvae compared to control larvae” value ([2]; up to 3 days post exposure) of the same compound?
Answer: The value was “no adverse effects”.

Question: What about the “egg hatching in head lice” value (head lice eggs; 10 minutes exposure) of the same compound?
Answer: Its value is “significantly suppress”.

Question: And the “eggs that failed to hatch” value (head lice eggs; the eggs other than the two that developed)?
Answer: The value was 80%.

Question: And the “egg hatching of Plutella eggs (Tables 10 and 11)” value (“egg hatching of Plutella eggs” for short) ([3]; 10 and 1 mM)?
Answer: The value was “significantly inhibit”.

Question: How did the “Activity class 0 = inactive 1 = low 2 = med 3 = high” value ([4]; 1 mM) turn out when `CC(=O)C1CCc2ccccc2C1=O` (stereo not drawn) [2-acetyl-1-tetralone] was run?
Answer: The value was 3 (a pLD50 greater than 4 is considered strongly active (Class 3)).

Question: What about the “Activity class 0 = inactive 1 = low 2 = med 3 = high” value ([4]; 10 mM) of the same compound?
Answer: Its value is 1 (a pLD50 value between 2 and 3 is considered weakly active (Class 1)).

Question: What about the “inhibition of H. contortus egg hatch (FIG. 10)” value (H. contortus eggs; 22 ug/mL (0.1 mM)) of the same compound?
Answer: Its value is “Partial inhibition”.

Question: What about the “inhibition of H. contortus egg hatch (FIG. 10)” value (H. contortus eggs; 220 ug/mL (1 mM) and 110 ug/mL (0.5 mM)) of the same compound?
Answer: The value was “highly effective”.

Question: What about the “ovicidal efficacy against H. armigera eggs (FIG. 6)” value ([5]; 1 mM) of the same compound?
Answer: The value was “efficacy declining”.

Question: And the “ovicidal efficacy against H. armigera eggs (FIG. 6)” value ([5]; 2 mM)?
Answer: Its value is “strong ovicidal efficacy”.

Question: And the “ovicidal efficacy against Plutella eggs (FIG. 7)” value ([3]; 0.5 mM)?
Answer: Its value is “no inhibition”.

Question: And the “ovicidal efficacy against Plutella eggs (FIG. 7)” value ([3]; 2 and 1 mM)?
Answer: Its value is “strong ovicidal efficacy”.

Question: How did the “% Inhibition relative to the FeSO4 controls” value [1, 6] turn out when `Cc1cccc(-c2cccc(C)n2)n1` [6,6′-dimethyl-2,2′-dipyridyl] was run?
Answer: The value was 3%.

Question: And the “% Inhibition relative to the FeSO4 controls” value [1, 7]?
Answer: The value was 0%.

Question: What about the “% Inhibition relative to the FeSO4 controls” value [1, 8] of the same compound?
Answer: The value was 38%.

Question: And the “% Inhibition of egg hatch relative to control” value ([5]; 0.001 mM)?
Answer: Its value is “No inhibition”.

Question: And the “% Inhibition of egg hatch relative to control” value ([5]; 0.01 mM)?
Answer: Its value is “No inhibition”.

Question: What about the “% Inhibition of egg hatch relative to control” value ([5]; 0.1 mM) of the same compound?
Answer: The value was “No inhibition”.

Question: And the “% Inhibition of egg hatch relative to control” value ([5]; 1 mM)?
Answer: Its value is “significantly inhibit”.

Question: And the “% Inhibition of egg hatch relative to control” value ([5]; 10 mM)?
Answer: The value was “significantly inhibit”.

Question: And the “% Inhibition of egg hatch relative to control” value ([3]; 1 mM)?
Answer: Its value is “strong ovicidal effects”.

Question: And the “% Inhibition of egg hatch relative to control” value ([3]; 10 mM)?
Answer: Its value is “strong ovicidal effects”.

Question: What about the “egg hatching of Plutella eggs” value ([3]; 0.1 and 0.01 mM) of the same compound?
Answer: The value was “no observable effects”.

Question: What about the “egg hatching of Plutella eggs” value ([3]; 10 and 1 mM) of the same compound?
Answer: Its value is “effective at inhibiting egg hatching”.

Source: patent US20100204277A1, “Compositions and Methods for Controlling Infestation” (HATCHTECH PTY LTD., priority 2007, published 2010)
